This passage reports IC50 results from patent US8614201B2 (Janssen Pharmaceutica NV, priority 2009, dated 2013).

Each structure is given as a SMILES string.

Chain of Human TRPA1 (O75762 whole entry): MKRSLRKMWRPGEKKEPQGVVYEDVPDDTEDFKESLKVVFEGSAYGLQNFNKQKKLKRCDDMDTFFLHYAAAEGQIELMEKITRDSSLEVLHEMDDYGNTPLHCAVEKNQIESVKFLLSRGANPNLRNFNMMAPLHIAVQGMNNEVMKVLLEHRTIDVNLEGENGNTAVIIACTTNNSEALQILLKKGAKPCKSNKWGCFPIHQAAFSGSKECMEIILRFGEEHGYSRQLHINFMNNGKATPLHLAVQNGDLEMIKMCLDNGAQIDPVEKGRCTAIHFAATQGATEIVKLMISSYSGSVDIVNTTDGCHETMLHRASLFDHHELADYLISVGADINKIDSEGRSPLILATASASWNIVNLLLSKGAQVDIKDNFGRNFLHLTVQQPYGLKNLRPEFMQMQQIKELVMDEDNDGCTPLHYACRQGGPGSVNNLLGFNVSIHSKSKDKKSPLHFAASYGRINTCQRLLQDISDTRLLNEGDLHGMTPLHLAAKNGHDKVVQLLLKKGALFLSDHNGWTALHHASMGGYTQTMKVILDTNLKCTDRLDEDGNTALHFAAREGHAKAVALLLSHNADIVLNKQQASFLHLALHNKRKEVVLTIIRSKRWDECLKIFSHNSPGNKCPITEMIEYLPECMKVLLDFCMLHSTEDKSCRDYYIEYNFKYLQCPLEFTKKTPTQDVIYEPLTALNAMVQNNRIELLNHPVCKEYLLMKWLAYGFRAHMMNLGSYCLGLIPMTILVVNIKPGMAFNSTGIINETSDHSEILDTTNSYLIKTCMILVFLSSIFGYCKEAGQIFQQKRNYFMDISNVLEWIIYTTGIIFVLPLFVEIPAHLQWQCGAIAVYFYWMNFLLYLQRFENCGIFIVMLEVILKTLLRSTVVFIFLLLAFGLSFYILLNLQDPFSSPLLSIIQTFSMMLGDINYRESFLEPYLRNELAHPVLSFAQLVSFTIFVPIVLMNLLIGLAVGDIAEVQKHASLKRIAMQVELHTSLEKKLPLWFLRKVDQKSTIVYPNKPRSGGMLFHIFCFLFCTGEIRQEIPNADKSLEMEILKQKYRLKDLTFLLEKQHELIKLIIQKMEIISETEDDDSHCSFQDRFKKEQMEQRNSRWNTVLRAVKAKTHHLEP

The assay addresses Human TRPA1 (Homo sapiens, UniProt O75762). Nature of the assay: Alternative TRPA1 Ca2+ fluorometry assay (hTRPA1/TREx-HEK293 cells, Fluo-4, FDSS 6000). The format is cell-based. Also noted: expressed in transfected cells. The settings on record: Fluo-4-AM, agonist 6,11-dihydro-5H-dibenzo[b,e]azepine-10-carboxylic acid methyl ester 25 nM, procedure used for Examples 184, 190 to 192, 194 to 316. How it is done:
In alternative embodiments, the assay was performed using the following procedure for Examples 184, 190 to 192, and 194 to 316:
The human TRPA1 gene was cloned into the pT-Rex-Dest30 inducible vector and stably transfected in T-Rex™-293 cells (Invitrogen, Merelbeke, Belgium). This tetracycline inducible hTRPA1 expression system was used in order to prevent CA^2+ overload in the cultured cells due to sustained TRPA1 expression. hTRPA1/TREx-HEK293 cells (referred to as jTRPA1 cells in the following text) were maintained under standard sterile cell culture conditions. The culture medium for the jTRPA1-HEK cells was DMEN (Gibco BRL, Invitrogen, Merelbeke, Belgium) supplemented with 5 g/l gengticin (Gibco), 5 mL/l blasticidin (Invitorgen), 14.6 g/l L-Glutamine (200 mMl; Gibco), 5 g/l penicillin/streptomycin (5.10-6 IU/I, Gibco), 5.5 g/l pyruvic acid (Gibco) and 10% foetal calf serum (Hyclone, Logan Utah, USA).
For Ca^2+ fluorometry experiments, hTRPA1-HEK cells were resuspended in HBSS seeding medium: HBSS (with CaCl2 and MgCl2: Gibco) supplemented with 14.6 g/l L-Glutamine (200 mM; Gibco), 5 g/l penicillin/streptomycin (5.10-6 IU/l. Gibco), 5.5 g/l pyruvic acid (Gibco) and 10% foetal calf serum (heat inactivated for 30 minutes at 56° C.; Hyclone, Logan Utah, USA). The cells were seeded in poly-D-lysine-coated 384-well round bottom polypropylene plates (Costar Corning, Data Packaging, Cambridge Mass., USA) at 12000 cells/well. Fifty ng/ml tetracycline was added to induce the hTRPA1 expression 24 h before the experiment.
The cells were loaded with 5 mg/l Fluo-4-AM (Molecular Probes, Invitorgen, Merelbeke, Belgium) dissolved in HBSS seeding medium supplemented with 0.7 g/l Probenecid (Sigma) and incubated for 1 h at 37° C. and subsequently at 20° C. for 1 to 2 h. The fluorescence was measured in the FDSS 6000 imaging based plate reader (Hamamutsu Photonics K.K., Hamamutsu City, Japan). The excitation wavelength was 488 nm and the emission wavelength 540 nm. After a control period of 12 seconds the inventive compounds were added and the Ca^2+ signal was measured within 14 minutes after application. Finally, a TRPA1 agonist, 6,11-dihydro-5H-dibenzo[b,e]azepine-10-carboxylic acid methyl ester, was added at a final concentration of 25 nM. The emission ratio was calculated by dividing the emission signal (Em540) by the first EM540 signal of the control period to compensate for the background fluorescence. […] For intracellular Ca^2+ measurements, a compound stock solution (10 to 100 mM) was further diluted in DMSO in order to obtain a final 1% DMSO concentration in the extracellular solution.
Turning to `Cc1ccc(C)c(-c2cc(CNC(=O)[C@@H]3CCCN3S(=O)(=O)c3ccc(F)cc3)nc(N3CCN(c4ccccc4F)CC3)n2)c1` [Example 232, 1-(4-Fluoro-benzenesulfonyl)-pyrrolidine-2S-carboxylic acid {6-(2,5-dimethyl-phenyl)-2-[4-(2-fluoro-phenyl)-piperazin-1-yl]-pyrimidin-4-ylmethyl}-amide], the IC50 came to 1120 nM.

`O=C(NCc1cc(-c2ccc(F)cc2F)nc(N2CCN(c3ccccc3F)CC2)n1)[C@@H]1CCCN1S(=O)(=O)c1ccc(F)cc1` [Example 233, 1-(4-Fluoro-benzenesulfonyl)-pyrrolidine-2S-carboxylic acid {6-(2,4-difluoro-phenyl)-2-[4-(2-fluoro-phenyl)-piperazin-1-yl]-pyrimidin-4-ylmethyl}-amide] had an IC50 of roughly 372 nM.

`O=C(NCc1cc(-c2cccc(OC(F)(F)F)c2)nc(N2CCN(c3ccccc3F)CC2)n1)[C@@H]1CCCN1S(=O)(=O)c1ccc(F)cc1` [Example 234, 1-(4-Fluoro-benzenesulfonyl)-pyrrolidine-2S-carboxylic acid [2-[4-(2-fluoro-phenyl)-piperazin-1-yl]-6-(3-trifluoromethoxy-phenyl)-pyrimidin-4-ylmethyl]-amide] came in with an IC50 greater than 10000 nM. For the compound `N#Cc1cccc(-c2cc(CNC(=O)[C@@H]3CCCN3S(=O)(=O)c3ccc(F)cc3)nc(N3CCN(c4ccccc4F)CC3)n2)c1` [Example 235, 1-(4-Fluoro-benzenesulfonyl)-pyrrolidine-2S-carboxylic acid {6-(3-cyano-phenyl)-2-[4-(2-fluoro-phenyl)-piperazin-1-yl]-pyrimidin-4-ylmethyl}-amide], the IC50 was found to be 5890 nM.

For the compound `Cc1cc(C)cc(-c2cc(CNC(=O)[C@@H]3CCCN3S(=O)(=O)c3ccc(F)cc3)nc(N3CCN(c4ccccc4F)CC3)n2)c1` [Example 236, 1-(4-Fluoro-benzenesulfonyl)-pyrrolidine-2S-carboxylic acid {6-(3,5-dimethyl-phenyl)-2-[4-(2-fluoro-phenyl)-piperazin-1-yl]-pyrimidin-4-ylmethyl}-amide], the IC50 was greater than 10000 nM. Compound `CN(C)c1cccc(-c2cc(CNC(=O)[C@@H]3CCCN3S(=O)(=O)c3ccc(F)cc3)nc(N3CCN(c4ccccc4F)CC3)n2)c1` [Example 237, 1-(4-Fluoro-benzenesulfonyl)-pyrrolidine-2S-carboxylic acid {6-(3-dimethylamino-phenyl)-2-[4-(2-fluoro-phenyl)-piperazin-1-yl]-pyrimidin-4-ylmethyl}-amide] came in with an IC50 greater than 10000 nM. Consider `O=C(NCc1cc(-c2ccc3c(c2)OCO3)nc(N2CCN(c3ccccc3F)CC2)n1)[C@@H]1CCCN1S(=O)(=O)c1ccc(F)cc1` [Example 238, 1-(4-Fluoro-benzenesulfonyl)-pyrrolidine-2S-carboxylic acid {6-benzo[1,3]dioxol-5-yl-2-[4-(2-fluoro-phenyl)-piperazin-1-yl]-pyrimidin-4-ylmethyl}-amide], for which the IC50 is 1290 nM. In other words, the single-digit micromolar range. `O=C(NCc1cc(-c2cccc(Cl)c2)nc(N2CCN(c3ccccc3F)CC2)n1)[C@@H]1CCCN1S(=O)(=O)c1ccc(F)cc1` [Example 239, 1-(4-Fluoro-benzenesulfonyl)-pyrrolidine-2S-carboxylic acid {6-(3-chloro-phenyl)-2-[4-(2-fluoro-phenyl)-piperazin-1-yl]-pyrimidin-4-ylmethyl}-amide] came in with an IC50 of 5010 nM. `Cc1cccc(C)c1-c1cc(CNC(=O)[C@@H]2CCCN2S(=O)(=O)c2ccc(F)cc2)nc(N2CCN(c3ccccc3F)CC2)n1` [Example 240, 1-(4-Fluoro-benzenesulfonyl)-pyrrolidine-2S-carboxylic acid {6-(2,6-dimethyl-phenyl)-2-[4-(2-fluoro-phenyl)-piperazin-1-yl]-pyrimidin-4-ylmethyl}-amide] gave an IC50 of roughly 933 nM.

Consider `O=C(NCc1cc(-c2ccc(Cl)cc2)nc(N2CCN(c3ccccc3F)CC2)n1)[C@@H]1CCCN1S(=O)(=O)c1ccc(F)cc1` [Example 241, 1-(4-Fluoro-benzenesulfonyl)-pyrrolidine-2-carboxylic acid {6-(4-chloro-phenyl)-2-[4-(2-fluoro-phenyl)-piperazin-1-yl]-pyrimidin-4-ylmethyl}-amide], for which the IC50 came out at 417 nM.

Regarding `O=C(NCc1cc(-c2ccccc2Cl)nc(N2CCN(c3ccccc3F)CC2)n1)[C@@H]1CCCN1S(=O)(=O)c1ccc(F)cc1` [Example 242, 1-(4-Fluoro-benzenesulfonyl)-pyrrolidine-2-carboxylic acid {6-(2-chloro-phenyl)-2-[4-(2-fluoro-phenyl)-piperazin-1-yl]-pyrimidin-4-ylmethyl}-amide], the IC50 is roughly 1100 nM. Turning to `O=C(NCc1cc(-c2cccc(C(F)(F)F)c2)nc(N2CCN(c3ccccc3F)CC2)n1)[C@@H]1CCCN1S(=O)(=O)c1ccc(F)cc1` [Example 243, 1-(4-Fluoro-benzenesulfonyl)-pyrrolidine-2S-carboxylic acid [2-[4-(2-fluoro-phenyl)-piperazin-1-yl]-6-(3-trifluoromethyl-phenyl)-pyrimidin-4-ylmethyl]-amide], the half-maximal inhibitory concentration (IC50) worked out at 3800 nM. Regarding `O=C(NCc1cc(-c2ccc(F)c(Cl)c2)nc(N2CCN(c3ccccc3F)CC2)n1)[C@@H]1CCCN1S(=O)(=O)c1ccc(F)cc1` [Example 244, 1-(4-Fluoro-benzenesulfonyl)-pyrrolidine-2-carboxylic acid {6-(3-chloro-4-fluoro-phenyl)-2-[4-(2-fluoro-phenyl)-piperazin-1-yl]-pyrimidin-4-ylmethyl}-amide], the IC50 is greater than 10000 nM. Under `O=C(NCc1cc(-c2ccccc2F)nc(N2CCN(c3ccccc3F)CC2)n1)[C@@H]1CCCN1S(=O)(=O)c1ccc(F)cc1` [Example 245, 1-(4-Fluoro-benzenesulfonyl)-pyrrolidine-2S-carboxylic acid {6-(2-fluoro-phenyl)-2-[4-(2-fluoro-phenyl)-piperazin-1-yl]-pyrimidin-4-ylmethyl}-amide] stands 2460 nM; under `O=C(NCc1cc(-c2cccc(F)c2)nc(N2CCN(c3ccccc3F)CC2)n1)[C@@H]1CCCN1S(=O)(=O)c1ccc(F)cc1` [Example 246, 1-(4-Fluoro-benzenesulfonyl)-pyrrolidine-2S-carboxylic acid {6-(3-fluoro-phenyl)-2-[4-(2-fluoro-phenyl)-piperazin-1-yl]-pyrimidin-4-ylmethyl}-amide], 2000 nM.

As for `Cc1ccccc1-c1cc(CNC(=O)[C@@H]2CCCN2S(=O)(=O)c2ccc(F)cc2)nc(N2CCN(c3ccccc3F)CC2)n1` [Example 247, 1-(4-Fluoro-benzenesulfonyl)-pyrrolidine-2S-carboxylic acid {2-[4-(2-fluoro-phenyl)-piperazin-1-yl]-6-o-tolyl-pyrimidin-4-ylmethyl}-amide], the half-maximal inhibitory concentration (IC50) was roughly 1440 nM. Under `O=C(NCc1cc(-c2ccc(Cl)c(Cl)c2)nc(N2CCN(c3ccccc3F)CC2)n1)[C@@H]1CCCN1S(=O)(=O)c1ccc(F)cc1` [Example 248, 1-(4-Fluoro-benzenesulfonyl)-pyrrolidine-2S-carboxylic acid {6-(3,4-dichloro-phenyl)-2-[4-(2-fluoro-phenyl)-piperazin-1-yl]-pyrimidin-4-ylmethyl}-amide] stands roughly 676 nM. `O=C(NCc1cc(-c2cc(F)cc(F)c2)nc(N2CCN(c3ccccc3F)CC2)n1)[C@@H]1CCCN1S(=O)(=O)c1ccc(F)cc1` [Example 249, 1-(4-Fluoro-benzenesulfonyl)-pyrrolidine-2S-carboxylic acid {6-(3,5-difluoro-phenyl)-2-[4-(2-fluoro-phenyl)-piperazin-1-yl]-pyrimidin-4-ylmethyl}-amide] displayed an IC50 of 1590 nM. Turning to `O=C(NCc1cc(-c2ccc(Cl)cc2Cl)nc(N2CCN(c3ccccc3F)CC2)n1)[C@@H]1CCCN1S(=O)(=O)c1ccc(F)cc1` [Example 250, 1-(4-Fluoro-benzenesulfonyl)-pyrrolidine-2S-carboxylic acid {6-(2,4-dichloro-phenyl)-2-[4-(2-fluoro-phenyl)-piperazin-1-yl]-pyrimidin-4-ylmethyl}-amide], the IC50 turned out to be 851 nM. Against the preceding compound, the IC50 is about 1.9-fold lower. The compound `O=C(NCc1cc(-c2ccccc2)nc(N2CCN(c3ccccc3F)CC2)n1)[C@@H]1CCCN1S(=O)(=O)c1ccc(F)cc1` [Example 251, 1-(4-Fluoro-benzenesulfonyl)-pyrrolidine-2S-carboxylic acid {2-[4-(2-fluoro-phenyl)-piperazin-1-yl]-6-phenyl-pyrimidin-4-ylmethyl}-amide] came in with an IC50 of 2510 nM.
